Laboratory results: US20040266857A1, “Novel lapachone compounds and methods of use thereof” (priority 2002, published 2004)
pIC50: −log10 of the molar value.

Tests used:
[1] = system: MCF-7 human breast carcinoma cells; test: Cell proliferation (colony formation) assay, MCF7; type: cell-based; conditions: cancer cell line MCF7, 4 h exposure, colonies scored after 10-15 days, compounds added in micromolar concentrations
Experimental: (§1) Cell proliferation assays were performed as described previously (Müller et al., (1996) J. Med. Chem. 39: 3132-3138; Müller et al., (1994) J. Med. Chem. 37: 1660-1669). More specifically, exponentially growing cells were seeded at 1,000 cells per well in six-well plates and allowed to attach for 24 h. […] Control wells were treated with equivalent volumes of DMSO. After 4 h, the supernatant was removed and fresh medium was added. Cultures were observed daily for 10-15 days and then were fixed and stained. Colonies of greater than 30 cells were scored as survivors. The assays of the present invention as shown in Table 2 and methods of measuring induction of E2F activity and elevation of E2F levels can be carried out following the descriptions found in Li et al., (2003) Proc Natl Acad Sci USA. 100(5): 2674-8 and U.S. Patent Application Publication No.2002/0169135, both incorporated herein by reference in their entireties.

[2] = system: MIA PACA-2 human pancreatic carcinoma cells; test: Cell proliferation (colony formation) assay, PaCa-2; type: cell-based; conditions: cancer cell line PaCa-2, 4 h exposure, colonies scored after 10-15 days, compounds added in micromolar concentrations, read-out: Average IC50 Pancr. PaCa-2
Experimental: as §1

[3] = system: HT-29 human colon carcinoma cells; test: Cell proliferation (colony formation) assay, HT-29; type: cell-based; conditions: cancer cell line HT-29, 4 h exposure, colonies scored after 10-15 days, compounds added in micromolar concentrations
Experimental: as §1

[4] = system: MCF 10A normal breast epithelial cells; test: Cell proliferation (colony formation) assay, MCF10A normal cells; type: cell-based; conditions: Homo sapiens, normal cell line MCF10A, 4 h exposure, colonies scored after 10-15 days, compounds added in micromolar concentrations, read-out: Average IC50 Normal Cell Lines Breast MCF10A
Experimental: as §1

[5] = system: A549 human lung carcinoma cells; test: Cell proliferation (colony formation) assay, A549; type: cell-based; conditions: cancer cell line A549, 4 h exposure, colonies scored after 10-15 days, compounds added in micromolar concentrations
Experimental: as §1, with “The assays of the present invention as shown in Table 2 and methods of measuring induction of E2F activity and elevation of E2F levels can be carried out following the descriptions found in Li et al., (2003) Proc Natl Acad Sci USA.” left out

[6] = system: SW-480 human colon carcinoma cells; test: Cell proliferation (colony formation) assay, SW480; type: cell-based; conditions: cancer cell line SW480, 4 h exposure, colonies scored after 10-15 days, compounds added in micromolar concentrations
Experimental: as §1

[7] = system: DLD1 human colon carcinoma cells; test: Cell proliferation (colony formation) assay, DLD1; type: cell-based; conditions: DLD-1, cancer cell line DLD1, 4 h exposure, colonies scored after 10-15 days, compounds added in micromolar concentrations
Experimental: as §1

[8] = system: NCM 460 normal colonic epithelial cells; test: Cell proliferation (colony formation) assay, NCM460 normal cells; type: cell-based; conditions: Homo sapiens; normal cell line NCM460; 4 h exposure, colonies scored after 10-15 days; compounds added in micromolar concentrations; read-out: Average IC50 Normal Cell Lines Colon NCM460
Experimental: as §1

[9] = system: normal fresh or proliferating human PBMC; conditions: cited from earlier work
human cancer cell lines = conditions: single agent; typical range; read-out: antineoplastic activity against human cancer cell lines (IC50); cited from earlier work
[10] = system: cancer cell lines and normal cells; conditions: Li et al. 2003; cited from earlier work
[11] = system: E2F family of transcription factors; conditions: cancer cells versus normal cells; cited from earlier work

Structure (SMILES) | pIC50 [1] | pIC50 [2] | pIC50 [3] | pIC50 [4] | pIC50 [5] | pIC50 [6] | pIC50 [7] | pIC50 [8] | cytotoxic effects on normal human PBMC [9] | pIC50 (human cancer cell lines) | induction of apoptosis in cancer cell lines versus normal cells [10] | induction of sustained E2F activity in nuclei of cancer cells but not in normal cells [11]
CC1(C)CCC2=C(S1)c1ccccc1C(=O)C2=O [Compound 1, 3,4-dihydro-2,2-dimethyl-2H-naphtho[1,2-b]thiopyran-5,6-dione] | 6.00 | 5.82 | 5.74 | 5.17 | 5.77 | 5.82 | 5.70 | 5.12 |  |  |  | 
CC1(C)CCC2=C(S1)C(=O)c1ccccc1C2=O [Compound 2, 3,4-dihydro-2,2-dimethyl-2H-naphtho[2,3-b]thiopyran-5,10-dione] | 4.80 |  |  |  |  | 4.49 | 4.49 |  |  |  |  | 
CC1SC2=C(C(=O)C(=O)c3ccccc32)C1(C)C (stereo not drawn) [Compound 3, 2,3,3-trimethyl-2H-3H-naphtho[1,2-b]thiophene-4,5-dione] | 6.00 |  | 5.82 |  |  | 6.05 | 6.05 | 5.70 |  |  |  | 
CC1SC2=C(C(=O)C(=O)c3ccccc32)C1(c1ccccc1)c1ccccc1 (stereo not drawn) [Compound 5, 2-methyl-3,3-diphenyl-2H-3H-naphtho[1,2-b]thiophene4,5-dione] |  | 5.89 | 5.77 | 5.23 | 5.64 |  |  | 5.11 |  |  |  | 
CC1(C)CCSC2=C1C(=O)C(=O)c1ccccc12 [Compound 6, 3,4-dihydro4,4-dimethyl-2H-naphtho[1,2-b]thiopyran-5,6-dione] |  | 5.92 | 5.80 | 5.20 | 5.80 |  |  | 5.22 |  |  |  | 
O=C1C(=O)c2ccccc2C2=C1C(c1ccccc1)CCS2 (stereo not drawn) [Compound 7, 3,4-dihydro-4-phenyl-2H-naphtho[1,2-b]thiopyran-5,6-dione] |  | 5.64 | 5.66 | 5.15 | 5.70 |  |  | 5.06 |  |  |  | 
CC1CSC2=C(O1)C(=O)C(=O)c1ccccc12 (stereo not drawn) [Compound 9, 2-methyl-11,12-dehydro-naphtho[1,2-b]thioxane-9,10-dione] |  | 5.85 | 5.82 | 5.19 | 5.70 | 5.82 |  | 5.31 |  |  |  | 
CC1OC2=C(SC1C)c1ccccc1C(=O)C2=O (stereo not drawn) [Compound 10, 2,3-dimethyl-11,12-dehydro-naphtho[1,2-b]thioxane-9,10-dione] |  | 5.70 | 5.70 | 5.10 | 5.74 | 6.00 |  | 5.21 |  |  |  | 
CC1SC2=C(OC1(C)C)C(=O)C(=O)c1ccccc12 (stereo not drawn) [Compound 12, 2,2,3-trimethyl-11,12-dehydro-naphtho[1,2-b]thioxane-9,10-dione] |  | 5.66 | 5.40 | 4.85 | 5.51 |  |  | 4.88 |  |  |  | 
CC1OC2=C(C(=O)C(=O)c3ccccc32)C1(C)C (stereo not drawn) [Dunnione, 2,3,3-trimethyl-2,3,4,5-tetrahydro-naphtho(2,3-b)dihydrofuran-6,7-dione, reference compound] | 6.00 |  |  |  |  | 5.55 | 5.55 | 5.40 |  |  |  | 
CC1(C)CCC2=C(O1)c1ccccc1C(=O)C2=O [β-Lapachone, 3,4-dihydro-2,2-dimethyl-2H-naphtho[1,2-b]pyran-5,6-dione, reference compound] | 6.00 | 5.80 | 5.68 | 5.24 |  | 5.48 | 5.44 | 5.09 | No cytotoxic effects | 5.00 to 6.00 | induces apoptosis only in cancer cell lines and not in normal cells | induces sustained E2F activity
